Source: publication PMC8843160 (Drug Delivery, 2022)
In brackets after ≈: the same amount, converted by molar mass. Like-named read-outs stand apart in the source and are kept apart here.

What was measured:
[1] = Equilibrium solubility experiments; assay type: physicochemical
Method: The obtained complexes were vibrated by ultrasonic for 10 min then continuously shaken in a water bath at 32 °C until equilibrium.
(§1) The samples were determined by an LC-20A HPLC system (SHIMADZU, Kyoto, Japan). The separation was achieved on an InertSustain C18 column (4.6 mm × 250 mm, 5 µm, SHIMADZU, Kyoto, Japan) with the flow rate keeping at 1.0 mL/min, the column temperature maintaining at 40 °C and mobile phase consisting of methanol:water (25:75, v/v) with 0.4% phosphoric acid in water. Injection volume for each run was 50 μL, and detection wavelength was 254 nm.

[2] = In vitro skin permeation, Franz diffusion cells; assay type: in vitro ADME, porcine; details: donor saturated solution in isopropyl myristate; for Q24h, the cumulative amount of drug permeated per unit area at 24 h / Tlag / Jss, the steady-state flux: porcine ear skin, receptor PBS pH 7.4, 32 °C; for Tlag: linear portion of permeation curve extrapolated to the abscissa; for Jss, the steady-state flux: slope of the linear portion of the plots
From the text: According to the description in our previous report (Xu et al., [2011]), the porcine ears immediately obtained from the killed pig were supplied by local slaughterhouse (Xiangtan, China). The hair of porcine ears was carefully cut off with animal hair clippers. Then, skin grafting knife (Medical Equipment Factory of Shanghai Medical Instruments Co., Ltd., Shanghai, China) was employed to separate the skin and subcutaneous fat, and the skin of thickness in range of 0.6 ± 0.1 mm was obtained. The skin was kept frozen at −20 °C no more than 2 weeks.
Two-chamber Franz diffusion cells (receiver volume of 6.5 mL, effective diffusion area of 2.8 cm^2) were used for the in vitro transdermal experiments. The prepared skin was placed between the cell halves with the SC facing the donor cell. The receptor compartment was filled with phosphate buffered saline (pH 7.4), which was put in a water bath at 32 ± 0.5 °C and stirred with a magnetic bar at 300 rpm. The saturated solution of DCN and its ion-pair compounds in isopropyl myristate was filled in the donor cell, and a glass sheet was employed to cover the supply chamber during the in vitro permeation experiments. Since the experiment started, 1.0 mL sample was withdrawn from the receptor compartment at predetermined time interval 2, 4, 6, 8, 10, 12, 14, and 24 h. Subsequently, the equal volume of fresh PBS was replenished. These investigations were performed with different individual skin at least in triplicate.
as §1

[3] = Apparent distribution coefficient (Log P), shake-flask method; assay type: physicochemical; details: n-octanol/distilled water, 48 h, 32 °C
Method: as §1

[4] = aqueous buffer, thermodynamic from solid, PBS pH 7.4, 32 °C, read-out: Equilibrium solubility PBS (pH 7.4)
[5] = thermodynamic from solid, isopropyl myristate, 32 °C, read-out: Equilibrium solubility IPM
[6] = thermodynamic from solid, water, 32 °C, read-out: Equilibrium solubility Water

**Q.** Which solubility thermodynamic at 48 h [1, 4] does the source give for `CC(=O)Oc1cccc2c1C(=O)c1c(OC(C)=O)cc(C(=O)O)cc1C2=O` [DCN, Diacerein, reference compound] here?
**A.** Its solubility thermodynamic at 48 h is 1442 ± 5.58 µg/mL (≈ 3910 µM).

**Q.** What about the solubility thermodynamic at 48 h [1, 5] of the same compound?
**A.** Its solubility thermodynamic at 48 h is 83.6 ± 18.1 µg/mL (≈ 227 µM).

**Q.** And the solubility thermodynamic at 48 h [1, 6]?
**A.** The solubility thermodynamic at 48 h was 8.29 ± 0.27 µg/mL (≈ 22.5 µM).

**Q.** What about the solubility thermodynamic at 48 h ([1]; water, 32 °C, read-out: Equilibrium solubility Water) of the same compound?
**A.** Its solubility thermodynamic at 48 h is at most 10 µg/mL.

**Q.** And the “Q24h, the cumulative amount of drug permeated per unit area at 24 h” value [2]?
**A.** Its value is 1.83 ± 0.22 µg/cm^2.

**Q.** What about the Tlag [2] of the same compound?
**A.** Its Tlag is 2.68 ± 0.78 h.

**Q.** And the “Jss, the steady-state flux” value [2]?
**A.** The value was 0.06 ± 0.01 µg/cm^2⋅h^–1.

**Q.** Which results are given for `CC(=O)Oc1cccc2c1C(=O)c1c(OC(C)=O)cc(C(=O)O)cc1C2=O.CCNCC` [DCN-Dea]?
**A.** Q24h, the cumulative amount of drug permeated per unit area at 24 h [2]: 2.82 ± 0.49 µg/cm^2; Tlag [2]: 4.12 ± 1.14 h; Jss, the steady-state flux [2]: 0.10 ± 0.01 µg/cm^2⋅h^–1

**Q.** With `CC(=O)Oc1cccc2c1C(=O)c1c(OC(C)=O)cc(C(=O)O)cc1C2=O.OCCNCCO` [DCN-Deta] as the compound, how does the “Q24h, the cumulative amount of drug permeated per unit area at 24 h” value [2] read?
**A.** Its value is 4.03 ± 0.71 µg/cm^2.

**Q.** And the Tlag [2]?
**A.** Its Tlag is 2.16 ± 0.55 h.

**Q.** What about the “Jss, the steady-state flux” value [2] of the same compound?
**A.** Its value is 0.11 ± 0.02 µg/cm^2⋅h^–1.

**Q.** For `CC(=O)Oc1cccc2c1C(=O)c1c(OC(C)=O)cc(C(=O)O)cc1C2=O.CCCCCCN` [DCN-N6], which “Q24h, the cumulative amount of drug permeated per unit area at 24 h” value [2] is on record?
**A.** The value was 3.86 ± 0.21 µg/cm^2.

**Q.** What about the Tlag [2] of the same compound?
**A.** The Tlag was 1.52 ± 0.36 h.

**Q.** What about the “Jss, the steady-state flux” value [2] of the same compound?
**A.** The value was 0.10 ± 0.02 µg/cm^2⋅h^–1.

**Q.** What does the source list for `CC(=O)Oc1cccc2c1C(=O)c1c(OC(C)=O)cc(C(=O)O)cc1C2=O.CCCCCCCCN` [DCN-N8]?
**A.** Q24h, the cumulative amount of drug permeated per unit area at 24 h [2]: 4.30 ± 0.63 µg/cm^2; Tlag [2]: 2.15 ± 0.22 h; Jss, the steady-state flux [2]: 0.14 ± 0.03 µg/cm^2⋅h^–1

**Q.** Which “Q24h, the cumulative amount of drug permeated per unit area at 24 h” value [2] does the source give for `CC(=O)Oc1cccc2c1C(=O)c1c(OC(C)=O)cc(C(=O)O)cc1C2=O.CCCCCCCCCCN` [DCN-N10] here?
**A.** The value was 6.41 ± 0.23 µg/cm^2.

**Q.** And the Tlag [2]?
**A.** Its Tlag is 1.38 ± 0.14 h.

**Q.** And the “Jss, the steady-state flux” value [2]?
**A.** The value was 0.20 ± 0.03 µg/cm^2⋅h^–1.

**Q.** Which Tlag [2] does the source give for `CC(=O)Oc1cccc2c1C(=O)c1c(OC(C)=O)cc(C(=O)O)cc1C2=O.CCCCCCCCCCCCN` [DCN-N12] here?
**A.** Its Tlag is 2.50 ± 0.18 h.

**Q.** And the “Jss, the steady-state flux” value [2]?
**A.** The value was 0.34 ± 0.02 µg/cm^2⋅h^–1.

**Q.** What does the source list for `CC(=O)Oc1cccc2c1C(=O)c1c(OC(C)=O)cc(C(=O)O)cc1C2=O.CCCCCCCCCCCCCCN` [DCN-N14]?
**A.** Q24h, the cumulative amount of drug permeated per unit area at 24 h [2]: 7.03 ± 1.56 µg/cm^2; Tlag [2]: 1.31 ± 0.11 h; Jss, the steady-state flux [2]: 0.24 ± 0.05 µg/cm^2⋅h^–1

**Q.** What does the source list for `CC(=O)Oc1cccc2c1C(=O)c1c(OC(C)=O)cc(C(=O)O)cc1C2=O.CCCCCCCCCCCCCCCCN` [DCN-N16]?
**A.** Q24h, the cumulative amount of drug permeated per unit area at 24 h [2]: 6.44 ± 0.36 µg/cm^2; Tlag [2]: 1.28 ± 0.23 h; Jss, the steady-state flux [2]: 0.22 ± 0.01 µg/cm^2⋅h^–1

**Q.** With `CC(=O)Oc1cccc2c1C(=O)c1c(OC(C)=O)cc(C(=O)O)cc1C2=O.CCCCCCCCCCCCCCCCCCN` [DCN-N18] as the compound, how does the “Q24h, the cumulative amount of drug permeated per unit area at 24 h” value [2] read?
**A.** Its value is 5.97 ± 1.25 µg/cm^2.

**Q.** What about the Tlag [2] of the same compound?
**A.** Its Tlag is 1.42 ± 0.52 h.

**Q.** What about the “Jss, the steady-state flux” value [2] of the same compound?
**A.** The value was 0.20 ± 0.01 µg/cm^2⋅h^–1.

**Q.** For `CC(=O)Oc1cccc2c1C(=O)c1c(OC(C)=O)cc(C(=O)O)cc1C2=O.CCN(CC)CC` [DCN-Tea], which solubility thermodynamic at 48 h [1, 4] is on record?
**A.** The solubility thermodynamic at 48 h was 8188 ± 44.4 µg/mL.

**Q.** What about the solubility thermodynamic at 48 h [1, 5] of the same compound?
**A.** The solubility thermodynamic at 48 h was 1385 ± 13.7 µg/mL.

**Q.** And the solubility thermodynamic at 48 h [1, 6]?
**A.** The solubility thermodynamic at 48 h was 3233 ± 12.6 µg/mL.

**Q.** What about the “Q24h, the cumulative amount of drug permeated per unit area at 24 h” value [2] of the same compound?
**A.** The value was 2.85 ± 0.64 µg/cm^2.

**Q.** And the Tlag [2]?
**A.** Its Tlag is 3.39 ± 0.55 h.

**Q.** What about the “Jss, the steady-state flux” value [2] of the same compound?
**A.** Its value is 0.11 ± 0.04 µg/cm^2⋅h^–1.

**Q.** Which “transdermal permeation rate (comparison in words)” value ([2]; porcine ear skin in vitro) does the source give for `CC(=O)Oc1cccc2c1C(=O)c1c(OC(C)=O)cc(C(=O)O)cc1C2=O.OCCN(CCO)CCO` [DCN-Teta] here?
**A.** Its value is “highest transdermal permeation rate”.

**Q.** And the “Q24h, the cumulative amount of drug permeated per unit area at 24 h” value [2]?
**A.** Its value is 7.89 ± 0.38 µg/cm^2.

**Q.** And the Tlag [2]?
**A.** The Tlag was 1.52 ± 0.48 h.

**Q.** What about the “Jss, the steady-state flux” value [2] of the same compound?
**A.** Its value is 0.17 ± 0.05 µg/cm^2⋅h^–1.

**Q.** Which results are given for `CC(=O)Oc1cccc2c1C(=O)c1c(OC(C)=O)cc(C(=O)O)cc1C2=O.CCN` [DCN-ea]?
**A.** Equilibrium solubility PBS (pH 7.4) ([1]; PBS pH 7.4, 32 °C, 48 h): 12155.69 ± 81.21 μg/mL; Equilibrium solubility IPM ([1]; isopropyl myristate, 32 °C, 48 h): 92.80 ± 14.10 µg/mL; Equilibrium solubility Water ([1]; water, 32 °C, 48 h): 6928.52 ± 4.80 µg/mL; Log P [3]: –0.39 ± 0.007; Q24h, the cumulative amount of drug permeated per unit area at 24 h [2]: 2.17 ± 0.30 µg/cm^2; Tlag [2]: 1.79 ± 0.66 h; Jss, the steady-state flux [2]: 0.08 ± 0.02 µg/cm^2⋅h^–1

**Q.** With `CC(=O)Oc1cccc2c1C(=O)c1c(OC(C)=O)cc(C(=O)O)cc1C2=O.NCCO` [DCN-eta] as the compound, how does the solubility thermodynamic at 48 h [1, 4] read?
**A.** Its solubility thermodynamic at 48 h is 6100 ± 24.7 µg/mL.

**Q.** What about the solubility thermodynamic at 48 h [1, 5] of the same compound?
**A.** The solubility thermodynamic at 48 h was 121.6 ± 1.2 µg/mL.

**Q.** What about the solubility thermodynamic at 48 h [1, 6] of the same compound?
**A.** The solubility thermodynamic at 48 h was 3060 ± 35.8 µg/mL.

**Q.** And the “Q24h, the cumulative amount of drug permeated per unit area at 24 h” value [2]?
**A.** The value was 3.04 ± 0.67 µg/cm^2.

**Q.** What about the Tlag [2] of the same compound?
**A.** Its Tlag is 1.41 ± 0.56 h.

**Q.** And the “Jss, the steady-state flux” value [2]?
**A.** The value was 0.09 ± 0.04 µg/cm^2⋅h^–1.
